According to US20220187282A1, “CARDIOMYOCYTE PROLIFERATION” (The Council of the Queensland Institute of Medical Research, priority 2019, published 2022):
Read-outs that look alike come from different tables or passages of the source.

Legend:
Format in all cases: biochemical
kinases [1] = target: kinases (Homo sapiens, UniProt O00329); conditions: PIK3CD/PIK3R1 FRET-Adapta SP; Test Conc(μM):ATP Conc(μM) 1:75
kinases [2] = target: kinases (Homo sapiens, UniProt O75582); conditions: RPS6KA5 (MSK1) FRET-Z-Lyte SP; ATP Conc(μM):Test Conc(μM) 1:50
kinases [3] = target: kinases (Homo sapiens, UniProt O75747); conditions: PIK3C2G FRET-Adapta SP; Test Conc(μM):ATP Conc(μM) 1:10
kinases [4] = target: kinases (Homo sapiens, UniProt O94921); conditions: CDK14(PFTK1)/cyclinY Lantha SP; Test Conc(μM) 1
kinases [5] = target: kinases (Homo sapiens, UniProt P24723); conditions: PRKCH (PKC eta) Z-Lyte SP; Test Conc(μM):ATP Conc(μM) 1:25
kinases [6] = target: kinases (Homo sapiens, UniProt P29317); conditions: EPHA2 FRET-Z-Lyte SP; Test Conc(μM):ATP Conc(μM) 1:75
kinases [7] = target: kinases (Homo sapiens, UniProt P35626); conditions: ADRBK2 (GRK3) FRET-Z-Lyte SP; Test Conc(μM):ATP Conc(μM) 1:10
kinases [8] = target: kinases (Homo sapiens, UniProt P42356); conditions: PI4KA FRET-Adapta SP; Test Conc(μM):ATP Conc(μM) 1:10
kinases [9] = target: kinases (Homo sapiens, UniProt P48426); conditions: PIP4K2A FRET-Adapta SP; Test Conc(μM):ATP Conc(μM) 1:10
kinases [10] = target: kinases (Homo sapiens, UniProt P50613); conditions: CDK7/cyclin H/MNAT1 Adapta SP; Test Conc(μM):ATP Conc(μM) 1:150
kinases [11] = target: kinases (Homo sapiens, UniProt P51817); conditions: PRKX FRET-Z-Lyte SP; Test Conc(μM):ATP Conc(μM) 1:10
kinases [12] = target: kinases (Homo sapiens, UniProt P53667); conditions: LIMK1 FRET-Lantha SP; Test Conc(μM) 1
kinases [13] = target: kinases (Homo sapiens, UniProt P54753); conditions: EPHB3 FRET-Z-Lyte SP; Test Conc(μM):ATP Conc(μM) 1:75
kinases [14] = target: kinases (Homo sapiens, UniProt Q04771); conditions: ACVR1 (ALK2) FRET-Lantha SP; Test Conc(μM) 1
kinases [15] = target: kinases (Homo sapiens, UniProt Q06187); conditions: BTK FRET-Z-Lyte SP; Test Conc(μM):ATP Conc(μM) 1:25
kinases [16] = target: kinases (Homo sapiens, UniProt Q12866); conditions: MERTK (cMER) *Mn* Z-Lyte SP; Test Conc(μM):ATP Conc(μM) 1:10
kinases [17] = target: kinases (Homo sapiens, UniProt Q13464); conditions: ROCK1 FRET-Z-Lyte SP; Test Conc(μM):ATP Conc(μM) 1:5
kinases [18] = target: kinases (Homo sapiens, UniProt Q14289); conditions: PTK2B (FAK2) *Mn* Z-Lyte SP; Test Conc(μM):ATP Conc(μM) 1:5
kinases [19] = target: kinases (Homo sapiens, UniProt Q15208); conditions: STK38 FRET-Lantha SP; Test Conc(μM) 1
kinases [20] = target: kinases (Homo sapiens, UniProt Q15759); conditions: MAPK11 (p38 beta) Z-Lyte SP; Test Conc(μM):ATP Conc(μM) 1:50
kinases [21] = target: kinases (Homo sapiens, UniProt Q16539)
kinases [22] = target: kinases (Homo sapiens, UniProt Q16566); conditions: CAMK4 (CaMKIV) FRET-Z-Lyte SP; Test Conc(μM):ATP Conc(μM) 1:25
kinases [23] = target: kinases (Homo sapiens, UniProt Q86UX6); conditions: STK32C (YANK3) FRET-Lantha SP; Test Conc(μM) 1
kinases [24] = target: kinases (Homo sapiens, UniProt Q8N752); conditions: CSNK1A1L FRET-Z-Lyte SP; Test Conc(μM):ATP Conc(μM) 1:5
kinases [25] = target: kinases (Homo sapiens, UniProt Q8TF76); conditions: GSG2 (Haspin) FRET-Adapta SP; Test Conc(μM):ATP Conc(μM) 1:25
kinases [26] = target: kinases (Homo sapiens, UniProt Q9H0K1); conditions: SNF1LK2 FRET-Z-Lyte SP; Test Conc(μM):ATP Conc(μM) 1:50
kinases [27] = target: kinases (Homo sapiens, UniProt Q9HC98); conditions: NEK6 FRET-Z-Lyte SP; Test Conc(μM):ATP Conc(μM) 1:100
kinases [28] = target: kinases (Homo sapiens, UniProt Q9UBS0); conditions: RPS6KB2 FRET-Z-Lyte SP; Test Conc(μM):ATP Conc(μM) 1:50
[29] = MAPK14 (p38a) Direct Z-Lyte SP, Test Conc(μM):ATP Conc(μM) 1:500
[30] = MAPK14 (p38a)Cascade Z-Lyte SP, Test Conc(μM):ATP Conc(μM) 1:100

Chain of kinases (Homo sapiens, UniProt Q16539) (Q16539 whole entry): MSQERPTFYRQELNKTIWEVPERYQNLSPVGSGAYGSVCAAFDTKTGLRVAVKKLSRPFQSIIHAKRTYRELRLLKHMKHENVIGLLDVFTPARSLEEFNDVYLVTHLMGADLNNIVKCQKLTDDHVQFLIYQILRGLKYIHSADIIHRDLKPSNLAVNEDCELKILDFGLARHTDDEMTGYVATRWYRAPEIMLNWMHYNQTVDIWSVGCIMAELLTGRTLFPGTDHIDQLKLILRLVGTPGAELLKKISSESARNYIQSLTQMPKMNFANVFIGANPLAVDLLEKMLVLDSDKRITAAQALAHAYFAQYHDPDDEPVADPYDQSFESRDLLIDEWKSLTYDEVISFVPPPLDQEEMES
Chain of kinases (Homo sapiens, UniProt Q9H0K1) (Q9H0K1 whole entry): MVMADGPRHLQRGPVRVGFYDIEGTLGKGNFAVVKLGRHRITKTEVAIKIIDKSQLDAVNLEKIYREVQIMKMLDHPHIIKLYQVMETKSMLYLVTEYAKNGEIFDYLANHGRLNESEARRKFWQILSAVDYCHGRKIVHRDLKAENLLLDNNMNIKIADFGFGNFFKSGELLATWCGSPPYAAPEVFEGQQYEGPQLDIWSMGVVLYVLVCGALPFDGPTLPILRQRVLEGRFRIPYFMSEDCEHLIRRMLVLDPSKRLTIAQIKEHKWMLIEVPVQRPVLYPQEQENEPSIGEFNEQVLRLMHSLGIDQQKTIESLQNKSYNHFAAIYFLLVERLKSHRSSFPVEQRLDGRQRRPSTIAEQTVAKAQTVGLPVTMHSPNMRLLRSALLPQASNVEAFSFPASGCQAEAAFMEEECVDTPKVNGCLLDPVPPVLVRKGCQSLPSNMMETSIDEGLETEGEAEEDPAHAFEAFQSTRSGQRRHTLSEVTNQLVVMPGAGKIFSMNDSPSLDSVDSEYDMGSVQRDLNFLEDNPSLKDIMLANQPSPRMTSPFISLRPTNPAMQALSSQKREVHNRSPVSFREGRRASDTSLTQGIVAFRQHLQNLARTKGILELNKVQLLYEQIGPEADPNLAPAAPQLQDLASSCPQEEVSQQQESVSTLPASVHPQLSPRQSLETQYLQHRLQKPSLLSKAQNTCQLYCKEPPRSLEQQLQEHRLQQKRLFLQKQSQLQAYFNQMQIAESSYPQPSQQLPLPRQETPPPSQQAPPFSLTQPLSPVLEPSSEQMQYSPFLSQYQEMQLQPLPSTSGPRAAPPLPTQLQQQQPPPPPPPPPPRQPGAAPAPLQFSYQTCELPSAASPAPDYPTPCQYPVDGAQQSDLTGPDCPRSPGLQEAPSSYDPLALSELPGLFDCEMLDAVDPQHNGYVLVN
Chain of kinases (Homo sapiens, UniProt O00329) (O00329 whole entry): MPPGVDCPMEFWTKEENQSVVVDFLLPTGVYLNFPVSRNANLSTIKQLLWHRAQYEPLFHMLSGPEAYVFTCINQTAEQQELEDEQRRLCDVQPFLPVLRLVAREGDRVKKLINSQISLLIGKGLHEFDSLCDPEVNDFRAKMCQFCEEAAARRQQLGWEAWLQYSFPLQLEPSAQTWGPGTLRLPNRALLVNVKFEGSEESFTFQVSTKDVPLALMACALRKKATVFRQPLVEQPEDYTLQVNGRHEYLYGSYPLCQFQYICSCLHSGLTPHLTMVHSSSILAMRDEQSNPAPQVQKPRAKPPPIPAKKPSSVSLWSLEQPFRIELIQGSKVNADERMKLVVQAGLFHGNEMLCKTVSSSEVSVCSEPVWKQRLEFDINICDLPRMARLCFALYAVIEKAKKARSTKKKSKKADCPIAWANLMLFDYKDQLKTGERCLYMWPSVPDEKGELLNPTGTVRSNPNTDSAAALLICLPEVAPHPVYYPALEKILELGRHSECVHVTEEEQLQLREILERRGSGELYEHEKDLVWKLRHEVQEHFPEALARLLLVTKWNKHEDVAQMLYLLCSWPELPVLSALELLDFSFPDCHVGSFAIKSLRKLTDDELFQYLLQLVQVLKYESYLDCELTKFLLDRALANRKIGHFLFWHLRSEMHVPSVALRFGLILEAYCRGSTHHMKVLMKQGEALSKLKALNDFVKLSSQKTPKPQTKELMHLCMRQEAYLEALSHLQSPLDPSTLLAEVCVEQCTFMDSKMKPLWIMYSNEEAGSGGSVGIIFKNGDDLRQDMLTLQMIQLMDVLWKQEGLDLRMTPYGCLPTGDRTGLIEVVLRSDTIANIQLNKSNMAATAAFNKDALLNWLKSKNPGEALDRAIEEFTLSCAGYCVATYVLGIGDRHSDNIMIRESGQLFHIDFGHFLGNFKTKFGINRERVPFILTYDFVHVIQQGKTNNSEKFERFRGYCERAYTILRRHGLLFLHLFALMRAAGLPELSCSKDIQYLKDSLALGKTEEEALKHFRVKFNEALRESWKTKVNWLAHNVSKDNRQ
Chain of kinases (Homo sapiens, UniProt P29317) (P29317 24-976): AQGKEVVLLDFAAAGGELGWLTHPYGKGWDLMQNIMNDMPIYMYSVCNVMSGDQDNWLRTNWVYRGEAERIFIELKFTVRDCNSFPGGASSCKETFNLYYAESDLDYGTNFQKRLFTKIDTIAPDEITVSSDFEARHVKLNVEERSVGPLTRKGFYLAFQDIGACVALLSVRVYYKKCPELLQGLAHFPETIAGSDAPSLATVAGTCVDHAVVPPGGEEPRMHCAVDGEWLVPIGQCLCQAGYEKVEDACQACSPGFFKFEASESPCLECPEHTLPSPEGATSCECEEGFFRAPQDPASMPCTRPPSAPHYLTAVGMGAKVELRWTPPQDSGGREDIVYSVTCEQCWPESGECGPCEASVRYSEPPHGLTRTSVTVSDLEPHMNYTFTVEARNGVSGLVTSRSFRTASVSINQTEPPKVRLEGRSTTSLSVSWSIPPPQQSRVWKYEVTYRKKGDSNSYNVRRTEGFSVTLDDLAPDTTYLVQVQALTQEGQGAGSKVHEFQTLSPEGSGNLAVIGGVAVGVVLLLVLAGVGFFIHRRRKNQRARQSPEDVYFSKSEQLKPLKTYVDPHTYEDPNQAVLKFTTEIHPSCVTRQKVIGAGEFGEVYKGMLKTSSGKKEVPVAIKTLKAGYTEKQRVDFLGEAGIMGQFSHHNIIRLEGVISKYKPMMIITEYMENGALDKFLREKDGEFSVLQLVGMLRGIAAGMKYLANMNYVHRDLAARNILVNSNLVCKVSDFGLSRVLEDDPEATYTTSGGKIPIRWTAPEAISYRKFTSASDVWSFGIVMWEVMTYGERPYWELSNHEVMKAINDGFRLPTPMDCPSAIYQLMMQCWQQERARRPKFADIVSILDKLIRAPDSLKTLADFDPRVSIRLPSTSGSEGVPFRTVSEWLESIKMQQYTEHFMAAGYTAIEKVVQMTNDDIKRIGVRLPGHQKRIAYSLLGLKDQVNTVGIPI
Chain of kinases (Homo sapiens, UniProt Q8N752) (Q8N752 whole entry): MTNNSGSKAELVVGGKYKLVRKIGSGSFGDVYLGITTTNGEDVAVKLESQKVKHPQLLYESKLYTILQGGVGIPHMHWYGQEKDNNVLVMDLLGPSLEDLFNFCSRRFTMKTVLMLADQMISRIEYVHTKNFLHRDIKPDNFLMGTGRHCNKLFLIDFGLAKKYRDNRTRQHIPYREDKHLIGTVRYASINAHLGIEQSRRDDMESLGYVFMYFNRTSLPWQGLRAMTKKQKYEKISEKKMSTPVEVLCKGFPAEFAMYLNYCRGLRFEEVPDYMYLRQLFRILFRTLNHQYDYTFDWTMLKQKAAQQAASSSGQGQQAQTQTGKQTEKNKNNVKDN
Chain of kinases (Homo sapiens, UniProt Q04771) (Q04771 21-509): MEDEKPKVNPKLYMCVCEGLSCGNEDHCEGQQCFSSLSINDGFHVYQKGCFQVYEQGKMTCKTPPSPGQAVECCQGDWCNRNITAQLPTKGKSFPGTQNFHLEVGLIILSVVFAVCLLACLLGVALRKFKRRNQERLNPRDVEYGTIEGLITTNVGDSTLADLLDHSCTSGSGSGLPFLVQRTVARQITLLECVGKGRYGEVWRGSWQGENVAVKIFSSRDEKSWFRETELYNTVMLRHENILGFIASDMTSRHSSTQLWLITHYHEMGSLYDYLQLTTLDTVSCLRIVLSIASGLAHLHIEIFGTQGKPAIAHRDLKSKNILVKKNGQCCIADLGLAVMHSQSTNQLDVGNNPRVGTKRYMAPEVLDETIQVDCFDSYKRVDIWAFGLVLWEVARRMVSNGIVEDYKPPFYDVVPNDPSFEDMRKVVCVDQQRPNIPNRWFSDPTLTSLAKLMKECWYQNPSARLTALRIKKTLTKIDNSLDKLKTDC
Chain of kinases (Homo sapiens, UniProt Q16566) (Q16566 whole entry): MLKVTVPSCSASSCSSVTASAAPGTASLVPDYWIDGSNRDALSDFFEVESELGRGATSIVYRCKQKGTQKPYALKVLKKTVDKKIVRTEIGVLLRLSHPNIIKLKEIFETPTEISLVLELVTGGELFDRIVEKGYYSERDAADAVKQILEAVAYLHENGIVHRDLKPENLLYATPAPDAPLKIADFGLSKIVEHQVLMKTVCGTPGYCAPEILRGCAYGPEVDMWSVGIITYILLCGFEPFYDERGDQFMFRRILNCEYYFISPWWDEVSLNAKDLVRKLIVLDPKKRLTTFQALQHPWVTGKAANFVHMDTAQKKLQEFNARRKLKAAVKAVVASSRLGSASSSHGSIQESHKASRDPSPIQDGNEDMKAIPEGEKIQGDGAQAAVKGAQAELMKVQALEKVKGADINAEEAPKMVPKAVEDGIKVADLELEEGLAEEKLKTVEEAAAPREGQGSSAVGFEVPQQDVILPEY
Chain of kinases (Homo sapiens, UniProt O94921) (O94921 whole entry): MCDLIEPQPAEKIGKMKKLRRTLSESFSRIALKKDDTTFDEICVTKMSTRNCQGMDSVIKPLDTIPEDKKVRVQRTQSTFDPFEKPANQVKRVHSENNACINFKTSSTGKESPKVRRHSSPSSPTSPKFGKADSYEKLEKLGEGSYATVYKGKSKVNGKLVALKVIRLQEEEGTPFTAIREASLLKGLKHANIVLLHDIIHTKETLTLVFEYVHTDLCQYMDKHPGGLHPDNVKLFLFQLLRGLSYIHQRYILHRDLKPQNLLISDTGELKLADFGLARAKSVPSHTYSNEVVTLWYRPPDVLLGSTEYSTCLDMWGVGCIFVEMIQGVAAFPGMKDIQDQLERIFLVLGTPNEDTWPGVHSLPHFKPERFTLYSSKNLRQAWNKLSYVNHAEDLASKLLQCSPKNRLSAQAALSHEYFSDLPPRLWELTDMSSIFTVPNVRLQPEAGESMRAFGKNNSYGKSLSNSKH

| Structure (SMILES) | Mean Inhib (%) (kinases [1]) | Mean Inhib (%) (kinases [2]) | Mean Inhib (%) (kinases [3]) | Mean Inhib (%) (kinases [4]) | Mean Inhib (%) (kinases [5]) | Mean Inhib (%) (kinases [6]) | Mean Inhib (%) (kinases [7]) | Mean Inhib (%) (kinases [8]) | Mean Inhib (%) (kinases [9]) | Mean Inhib (%) (kinases [10]) | Mean Inhib (%) (kinases [11]) | Mean Inhib (%) (kinases [12]) | Mean Inhib (%) (kinases [13]) | Mean Inhib (%) (kinases [14]) | Mean Inhib (%) (kinases [15]) | Mean Inhib (%) (kinases [16]) | Mean Inhib (%) (kinases [17]) | Mean Inhib (%) (kinases [18]) | Mean Inhib (%) (kinases [19]) | Mean Inhib (%) (kinases [20]) | also measured |
| --- | --- | --- | --- | --- | --- | --- | --- | --- | --- | --- | --- | --- | --- | --- | --- | --- | --- | --- | --- | --- | --- |
| Cc1ccc(NC(=O)c2ccnc(N3CCOCC3)c2)cc1Nc1ccnc(N2CC(C)OC(C)C2)n1 (stereo not shown) [compound 3] | 1.0% | 1.6% | 5.6% | 3.5% | 9.3% | 10.8% | 0.7% | 4.3% | 2.2% | −2.3% | −3.2% | 2.2% | −0.5% | 2.3% | 6.7% | 13.1% | 45.9% | 8.5% | −9.2% | 47.6% | Mean Inhib (%) (kinases [21]; [29]): 79.8%; Mean Inhib (%) (kinases [21]; [30]): 59.0%; Mean Inhib (%) (kinases [22]): −5.4%; Mean Inhib (%) (kinases [23]): −1.0%; Mean Inhib (%) (kinases [24]): 2.0%; Mean Inhib (%) (kinases [25]): −5.6%; Mean Inhib (%) (kinases [26]): 15.9%; Mean Inhib (%) (kinases [27]): −4.0%; Mean Inhib (%) (kinases [28]): 7.8% |
| Cc1cc(Oc2ccnc(Nc3ccc(S(N)(=O)=O)cc3)c2)c(-c2ccccn2)nc1C [compound 65] | 23.8% | 10.0% | 0.4% | 11.7% | 0.8% | 30.7% | −2.5% | −6.0% | −8.6% | −2.2% | 1.8% | 1.8% | 1.6% | 88.2% | 29.9% | 7.3% | 1.6% | −2.5% | 3.1% | 21.2% | Mean Inhib (%) (kinases [21]; [29]): 19.9%; Mean Inhib (%) (kinases [21]; [30]): 13.5%; Mean Inhib (%) (kinases [22]): −1.8%; Mean Inhib (%) (kinases [23]): 7.8%; Mean Inhib (%) (kinases [24]): 0.5%; Mean Inhib (%) (kinases [25]): −1.9%; Mean Inhib (%) (kinases [26]): 10.7%; Mean Inhib (%) (kinases [27]): 8.2%; Mean Inhib (%) (kinases [28]): 2.1% |
